From patent publication US7482355B2, “Pyrimidine derivatives as modulators of chemokine receptor activity” (AstraZeneca AB, priority 2002, dated 2009) come the findings set out here.

Molecules are shown by their SMILES.

The target in the assay is T1, hrCXCR2 (Homo sapiens, UniProt P25025).
T1 construct: expressed in transfected cells; host or cells: HEK 293 cells (ECACC No. 85120602), membranes of the highest expressing clone
T1 sequence (P25025 1-360): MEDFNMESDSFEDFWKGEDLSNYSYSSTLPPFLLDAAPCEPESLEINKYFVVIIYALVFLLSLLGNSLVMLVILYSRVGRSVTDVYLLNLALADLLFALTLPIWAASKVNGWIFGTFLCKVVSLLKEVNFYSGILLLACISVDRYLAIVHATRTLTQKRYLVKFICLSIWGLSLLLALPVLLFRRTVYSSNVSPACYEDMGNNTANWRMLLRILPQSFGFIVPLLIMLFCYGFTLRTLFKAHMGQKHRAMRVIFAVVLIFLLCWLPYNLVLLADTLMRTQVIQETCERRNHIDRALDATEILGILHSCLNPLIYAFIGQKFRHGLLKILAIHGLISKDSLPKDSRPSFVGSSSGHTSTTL
Briefly: Ligand binding assay, [125I]IL-8 displacement from membranes of HEK 293 cells expressing hrCXCR2. The following applies: [125I]IL-8 (~50 pM), HEK 293 hrCXCR2 membranes, 1.5 hours at room temperature. An excerpt: [^125I]IL-8 (human, recombinant) was purchased from Amersham, U.K. with a specific activity of 2,000 Ci/mmol. All other chemicals were of analytical grade. High levels of hrCXCR2 were expressed in HEK 293 cells (human embryo kidney 293 cells ECACC No. 85120602) (Lee et al. (1992) J. Biol. Chem. 267 pp16283-16291). hrCXCR2 cDNA was amplified and cloned from human neutrophil mRNA. The DNA was cloned into PCRScript (Stratagene) and clones were identified using DNA. The coding sequence was sub-cloned into the eukauyotic expression vector RcCMV (Invitrogen). Plasmid DNA was prepared using Quiagen Megaprep 2500 and transfected into HEK 293 cells using Lipofectamine reagent (Gibco BRL). Cells of the highest expressing clone were harvested in phosphate-buffered saline containing 0.2% (w/v) ethylenediaminetetraacetic acid (EDTA) and centrifuged (200 g, 5 min.). The cell pellet was resuspended in ice cold homogenisation buffer [10 mM HEPES (pH 7.4), 1 mM dithiothreitol, 1 mM EDTA and a panel of protease inhibitors (1 mM phenyl methyl sulphonyl fluoride, 2 μg/ml soybean trypsin inhibitor, 3 mM benzamidine, 0.5 μg/ml leupeptin and 100 μg/ml bacitracin)] and the cells left to swell for 10 minutes. The cell preparation was disrupted using a hand held glass mortar/PTFE pestle homogeniser and cell membranes harvested by centrifugation (45 minutes, 100,000 g, 4° C.). The membrane preparation was stored at −70° C. in homogenisation buffer supplemented with Tyrode's salt solution (137 mM NaCl, 2.7 mM KCl, 0.4 mM NaH2PO4), 0.1% (w/v) gelatin and 10% (v/v) glycerol.
All assays were performed in a 96-well MultiScreen 0.45 μm filtration plates (Millipore, U.K.). Each assay contained ˜50 pM [^125I]IL-8 and membranes (equivalent to ˜200,000 cells) in assay buffer [Tyrode's salt solution supplemented with 10 mM HEPES (pH 7.4), 1.8 mM CaCl2, 1 mM MgCl2, 0.125 mg/ml bacitracin and 0.1% (w/v) gelatin]. […] The backing plate was removed from the MultiScreen plate assembly, the filters dried at room temperature, punched out and then counted on a Cobra γ-counter.

`C[C@H](CO)Nc1cc(O)nc(SCc2cccc(Cl)c2)n1` [Example 3, 2-[(3-Chlorobenzyl)thio]-6-{[(1R)-2-hydroxy-1-methylethyl]amino}-4-pyrimidinol]: the IC50 is 794 nM.
Under `C[C@H](CO)Nc1nc(SCc2cccc(F)c2F)nc(O)c1SCc1ncon1` [Example 26, 2-[[(2,3-Difluorophenyl)methyl]thio]-6-[[(1R)-2-hydroxy-1-methylethyl]amino]-5-[(1,2,4-oxadiazol-3-ylmethyl)thio]-4-pyrimidinol] stands 100 nM; under `C[C@H](CO)Nc1nc(SCc2cccc(F)c2)nc(O)c1F` [Example 33, 2-[(3-fluorobenzyl)thio]-5-fluoro-6-{[(1R)-2-hydroxy-1-methylethyl]amino}pyrimidin-4-ol], 31.6 nM.
